26 compounds from patent US9475817B2 (BRISTOL-MYERS SQUIBB COMPANY, priority 2012, dated 2016) can be followed below.

SMILES strings stand for the structures.

The target in experiment [1] is CK1δ (Homo sapiens (Human), UniProt P48730). As to the kind of experiment: CK1δ kinase assay (Caliper LabChip, fluoresceinated peptide substrate). The settings on record: 200 pM CK1δ, 50 μM ATP, 1.5 μM peptide substrate, 22 hours room temperature. In kind it is biochemical. How it is done: (§1) CK1ε and CK1δ Kinase Assays
Sequence of CK1δ (P48730 whole entry): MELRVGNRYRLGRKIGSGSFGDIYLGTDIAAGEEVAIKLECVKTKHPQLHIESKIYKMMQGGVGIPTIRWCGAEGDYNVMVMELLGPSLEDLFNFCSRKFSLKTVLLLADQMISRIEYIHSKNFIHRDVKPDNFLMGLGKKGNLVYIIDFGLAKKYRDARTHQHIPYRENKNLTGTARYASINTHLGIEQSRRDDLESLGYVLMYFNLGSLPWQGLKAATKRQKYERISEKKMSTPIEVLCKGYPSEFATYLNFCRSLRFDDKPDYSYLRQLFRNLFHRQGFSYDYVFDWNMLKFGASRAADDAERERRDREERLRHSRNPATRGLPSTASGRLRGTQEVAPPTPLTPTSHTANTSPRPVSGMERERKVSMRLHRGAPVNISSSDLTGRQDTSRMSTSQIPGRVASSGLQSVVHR
(§2) The kinase assay was performed in V-bottom 384-well plates. […] The reaction was incubated at room temperature for 22 hours and terminated by adding 45 μl of 35 mM EDTA to each sample. […] Compounds were dissolved at 10 mM in dimethylsulfoxide (DMSO) and evaluated at eleven concentrations. IC50 values were derived by non-linear regression analysis.

Experiment [2] deals with CK1ε (Homo sapiens (Human), UniProt P49674). Description: CK1ε kinase assay (Caliper LabChip, fluoresceinated peptide substrate). In kind it is biochemical. The note with it: 200 pM CK1ε, 50 μM ATP, 1.5 μM peptide substrate, 22 hours room temperature. How it is done:
as §1, §2

Sequence of CK1ε (P49674 whole entry): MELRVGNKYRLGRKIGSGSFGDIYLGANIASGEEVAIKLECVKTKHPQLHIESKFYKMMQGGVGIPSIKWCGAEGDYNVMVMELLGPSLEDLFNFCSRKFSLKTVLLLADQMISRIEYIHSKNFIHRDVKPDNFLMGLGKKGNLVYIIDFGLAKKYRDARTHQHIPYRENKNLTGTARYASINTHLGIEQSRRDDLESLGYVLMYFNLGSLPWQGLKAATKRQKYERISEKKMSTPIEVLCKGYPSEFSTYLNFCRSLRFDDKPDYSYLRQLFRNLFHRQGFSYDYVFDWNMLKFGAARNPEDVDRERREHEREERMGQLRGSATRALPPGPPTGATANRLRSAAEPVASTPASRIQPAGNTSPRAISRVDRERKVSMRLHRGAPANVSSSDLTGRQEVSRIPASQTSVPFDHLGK

Consider `Cn1nc(-c2ccc(F)cc2)c(-c2ccc3nc(NC(=O)c4ccnc(F)c4)cn3n2)c1N1CCN(C(=O)CC(F)(F)F)CC1` [Compound 121, 2-Fluoro-N-(6-(3-(4-fluorophenyl)-1-methyl-5-(4-(3,3,3-trifluoropropanoyl)piperazin-1-yl)-1H-pyrazol-4-yl)imidazo[1,2-b]pyridazin-2-yl)isonicotinamide], for which the IC50 in experiment [1] was found to be 1.2 nM; in experiment [2], 14.4 nM.

`Cn1nc(-c2ccc(F)cc2)c(-c2ccc3nc(NC(=O)c4ccnc(N)c4)cn3n2)c1N1CCN(Cc2ccon2)CC1` [Compound 142, 2-Amino-N-(6-(3-(4-fluorophenyl)-5-(4-(isoxazol-3-ylmethyl)piperazin-1-yl)-1-methyl-1H-pyrazol-4-yl)imidazo[1,2-b]pyridazin-2-yl)isonicotinamide]: the values for the concentration for half-maximal inhibition (IC50) in experiment [1] and in experiment [2] were 0.3 nM and 2.2 nM, respectively.

`Cn1cc(-c2ccc3nc(NC(=O)C45CC6CC(CC(C6)C4)C5)cn3n2)c(-c2ccc(F)cc2)n1` [Compound 93, (3,5,7)-N-(6-(3-(4-fluorophenyl)-1-methyl-1H-pyrazol-4-yl)imidazo[1,2-b]pyridazin-2-yl)adamantane-1-carboxamide]: the half-inhibitory concentration (IC50) in experiment [1] was determined as 4.1 nM; in experiment [2], 6 nM.

On to `Cc1cc(C(=O)Nc2cn3nc(-c4cn(C)nc4-c4ccc(F)cc4)ccc3n2)ccn1` [Compound 52, N-(6-(3-(4-fluorophenyl)-1-methyl-1H-pyrazol-4-yl)imidazo[1,2-b]pyridazin-2-yl)-2-methylisonicotinamide], for which the half-inhibitory concentration (IC50) is 7.6 nM in experiment [1] and 17.8 nM in experiment [2].

With `Cn1nc(-c2ccc(F)cc2)c(-c2ccc3nc(NC(=O)c4ccnc(F)c4)cn3n2)c1C1CCN(C(=O)CC(F)(F)F)CC1` [Compound 151, 2-Fluoro-N-(6-(3-(4-fluorophenyl)-1-methyl-5-(1-(3,3,3-trifluoropropanoyl)piperidin-4-yl)-1H-pyrazol-4-yl)imidazo[1,2-b]pyridazin-2-yl)isonicotinamide], the 50% inhibitory concentration (IC50) in experiment [1] came to 0.5 nM; in experiment [2], 5.7 nM.

`Cc1c[nH]nc1C(=O)Nc1cn2nc(-c3cn(C)nc3-c3ccc(F)cc3)ccc2n1` [Compound 34, N-(6-(3-(4-fluorophenyl)-1-methyl-1H-pyrazol-4-yl)imidazo[1,2-b]pyridazin-2-yl)-4-methyl-1H-pyrazol-3-carboxamide]: the figures for the IC50 in experiment [1] and in experiment [2] were 3.6 nM and 18.7 nM, respectively.

For the compound `CN1CCN(c2c(-c3ccc4nc(NC(=O)c5ccnc(F)c5)cn4n3)c(-c3ccc(F)cc3)nn2C)CC1` [Compound 116, 2-fluoro-N-(6-(3-(4-fluorophenyl)-1-methyl-5-(4-methylpiperazin-1-yl)-1H-pyrazol-4-yl)imidazo [1,2-b]pyridazin-2-yl)isonicotinamide], the IC50 was determined as 0.7 nM in experiment [1] and 9.3 nM in experiment [2].

For the compound `Cn1cc(-c2ccc3nc(NC(=O)C4CCC4)cn3n2)c(-c2ccc(F)cc2)n1` [Compound 89, N-(6-(3-(4-fluorophenyl)-1-methyl-1H-pyrazol-4-yl)imidazo[1,2-b]pyridazin-2-yl)cyclobutanecarboxamide], the concentration for half-maximal inhibition (IC50) in experiment [1] is 7.1 nM; in experiment [2], 25.8 nM.

As for `Cn1nc(-c2ccc(F)cc2)c(-c2ccc3nc(NC(=O)c4ccncc4)cn3n2)c1C1CCN(Cc2cocn2)CC1` [Compound 172, N-(6-(3-(4-fluorophenyl)-1-methyl-5-(1-(oxazol-4-ylmethyl)piperidin-4-yl)-1H-pyrazol-4-yl)imidazo[1,2-b]pyridazin-2-yl) isonicotinamide], the IC50 came out at 4.5 nM in experiment [1] and 10.4 nM in experiment [2].

On to `Cn1nc(-c2ccc(F)cc2)c(-c2ccc3nc(NC(=O)c4ccncc4)cn3n2)c1-c1ccncc1` [Compound 204, N-(6-(3-(4-Fluorophenyl)-1-methyl-5-(pyridin-4-yl)-1H-pyrazol-4-yl)imidazo[1,2-b]pyridazin-2-yl)isonicotinamide], for which the concentration for half-maximal inhibition (IC50) turned out to be 0.4 nM in experiment [1] and 3.2 nM in experiment [2].

Regarding `Cn1cc(-c2ccc3nc(NC(=O)c4ccnc(N5CCOCC5)c4)cn3n2)c(-c2ccc(F)cc2)n1` [Compound 69, N-(6-(3-(4-fluorophenyl)-1-methyl-1H-pyrazol-4-yl)imidazo[1,2-b]pyridazin-2-yl)-2-morpholinoisonicotinamide], the IC50 in experiment [1] came out at 2.3 nM; in experiment [2], 4.8 nM.

`COc1ccc(C(=O)Nc2cn3nc(-c4cn(C)nc4-c4ccc(F)cc4)ccc3n2)c(OC)n1` [Compound 75, N-(6-(3-(4-fluorophenyl)-1-methyl-1H-pyrazol-4-yl)imidazo[1,2-b]pyridazin-2-yl)-2,6-dimethoxynicotinamide]: the IC50 turned out to be 41 nM in experiment [1] and 363 nM in experiment [2].

Regarding `Cn1nc(-c2ccc(F)cc2)c(-c2ccc3nc(NC(=O)c4ccncc4)cn3n2)c1N1CCN(CCC(F)(F)F)CC1` [Compound 130, N-(6-(3-(4-Fluorophenyl)-1-methyl-5-(4-(3,3,3-trifluoropropyl)piperazin-1-yl)-1H-pyrazol-4-yl)imidazo[1,2-b]pyridazin-2-yl)isonicotinamide], the concentration for half-maximal inhibition (IC50) came to 1.4 nM in experiment [1] and 23.5 nM in experiment [2].

As for `Cn1nc(-c2ccc(F)cc2)c(-c2ccc3nc(NC(=O)c4ccnc(N)c4)cn3n2)c1N1CCN(CCC(F)(F)F)CC1` [Compound 141, 2-Amino-N-(6-(3-(4-fluorophenyl)-1-methyl-5-(4-(3,3,3-trifluoropropyl)piperazin-1-yl)-1H-pyrazol-4-yl)imidazo[1,2-b]pyridazin-2-yl)isonicotinamide], the results for the IC50 in experiment [1] and in experiment [2] were 2.5 nM and 32 nM, respectively.

Take `Cn1cc(-c2ccc3nc(NC(=O)Nc4ccccc4)cn3n2)c(-c2ccc(F)cc2)n1` [Compound 186, 1-(6-(3-(4-Fluorophenyl)-1-methyl-1H-pyrazol-4-yl)imidazo[1,2-b]pyridazin-2-yl)-3-phenylurea]: the half-inhibitory concentration (IC50) worked out at 14.6 nM in experiment [1] and 114 nM in experiment [2].

On to `Cn1nc(-c2ccc(F)cc2)c(-c2ccc3nc(NC(=O)c4ccnc(F)c4)cn3n2)c1N1CCN(C(=O)CN)CC1` [Compound 123, N-(6-(5-(4-(2-Aminoacetyl)piperazin-1-yl)-3-(4-fluorophenyl)-1-methyl-1H-pyrazol-4-yl)imidazo[1,2-b]pyridazin-2-yl)-2-fluoroisonicotinamide], for which the IC50 turned out to be 0.1 nM in experiment [1] and 0.2 nM in experiment [2].

Regarding `Cn1cc(-c2ccc3nc(NC(=O)OCc4ccccc4)cn3n2)c(-c2ccc(F)cc2)n1` [Compound 187, Benzyl 6-(3-(4-fluorophenyl)-1-methyl-1H-pyrazol-4-yl)imidazo[1,2-b]pyridazin-2-ylcarbamate], the IC50 in experiment [1] was 51.5 nM; in experiment [2], above 2000 nM.

Turning to `Cc1nc(C(F)(F)F)ccc1C(=O)Nc1cn2nc(-c3cn(C)nc3-c3ccc(F)cc3)ccc2n1` [Compound 95, N-(6-(3-(4-fluorophenyl)-1-methyl-1H-pyrazol-4-yl)imidazo[1,2-b]pyridazin-2-yl)-2-methyl-6-(trifluoromethyl)nicotinamide], the 50% inhibitory concentration (IC50) in experiment [1] came to 6.5 nM; in experiment [2], 17.2 nM.

Take `Cn1cc(-c2ccc3nc(NC(=O)c4ccc(CN5CCCC5)cc4)cn3n2)c(-c2ccc(F)cc2)n1` [Compound 30, N-(6-(3-(4-fluorophenyl)-1-methyl-1H-pyrazol-4-yl)imidazo[1,2-b]pyridazin-2-yl)-4-(pyrrolidin-1-ylmethyl)benzamide]: the concentration for half-maximal inhibition (IC50) is 5.8 nM in experiment [1] and 7.9 nM in experiment [2].

For `Cn1cc(-c2ccc3nc(Nc4ncccn4)cn3n2)c(-c2ccc(F)cc2)n1` [Compound 185, 6-(3-(4-Fluorophenyl)-1-methyl-1H-pyrazol-4-yl)-N-(pyrimidin-2-yl)imidazo[1,2-b]pyridazin-2-amine], the IC50 in experiment [1] amounted to 16 nM; in experiment [2], 48 nM.

Regarding `COc1cccc(C(=O)Nc2cn3nc(-c4cn(C)nc4-c4ccc(F)cc4)ccc3n2)n1` [Compound 67, N-(6-(3-(4-fluorophenyl)-1-methyl-1H-pyrazol-4-yl)imidazo[1,2-b]pyridazin-2-yl)-6-methoxypicolinamide], the half-inhibitory concentration (IC50) in experiment [1] was determined as 14.2 nM; in experiment [2] it was 13.3 nM.

In the case of `Cn1cc(-c2ccc3nc(NC(=O)c4ccccn4)cn3n2)c(-c2ccc(F)cc2)n1` [Compound 96, N-(6-(3-(4-fluorophenyl)-1-methyl-1H-pyrazol-4-yl)imidazo[1,2-b]pyridazin-2-yl)picolinamide], the IC50 amounted to 11.8 nM in experiment [1] and 42 nM in experiment [2].

Consider `Cn1cc(-c2ccc3nc(NC(=O)c4ccc(Cl)cc4F)cn3n2)c(-c2ccc(F)cc2)n1` [Compound 24, 4-chloro-2-fluoro-N-(6-(3-(4-fluorophenyl)-1-methyl-1H-pyrazol-4-yl)imidazo[1,2-b]pyridazin-2-yl)benzamide], for which the values for the IC50 in experiment [1] and in experiment [2] were 6.3 nM and 16.2 nM, respectively.

As for `Cn1cc(-c2ccc3nc(NC(=O)c4ccccc4)c(C#N)n3n2)c(-c2ccc(F)cc2)n1` [Compound 190, N-(3-Cyano-6-(3-(4-fluorophenyl)-1-methyl-1H-pyrazol-4-yl)imidazo[1,2-b]pyridazin-2-yl)benzamide], the IC50 in experiment [1] was 4.2 nM; in experiment [2] it was 14.5 nM.

Regarding `COc1cc(C(=O)Nc2cn3nc(-c4cn(C)nc4-c4ccc(F)cc4)ccc3n2)ccn1` [Compound 49, N-(6-(3-(4-fluorophenyl)-1-methyl-1H-pyrazol-4-yl)imidazo[1,2-b]pyridazin-2-yl)-2-methoxyisonicotinamide], the IC50 turned out to be 6.1 nM in experiment [1] and 13.6 nM in experiment [2].

Consider `Cn1nc(-c2ccc(F)cc2)c(-c2ccc3nc(NC(=O)c4ccnc(F)c4)cn3n2)c1C1CCNCC1` [Compound 148, 2-Fluoro-N-(6-(3-(4-fluorophenyl)-1-methyl-5-(piperidin-4-yl)-1H-pyrazol-4-yl)imidazo[1,2-b]pyridazin-2-yl)isonicotinamide], for which the values for the half-inhibitory concentration (IC50) in experiment [1] and in experiment [2] were 2.1 nM and 2.6 nM, respectively.

What is called IC50 is the concentration needed to halve the response being measured. Lower therefore signals higher potency.
